The source of these data is patent US20180338955A1, “METHODS FOR REGULATION AND TREATMENT OF GLIOMA CELL MIGRATION AND GLIOBLASTOMA” (priority 2015, published 2018).

“Also recorded” adds a separate entry of the source.

One series deals with U87 glioma cells. The note with it: U87 glioma cells cultured on tenascin and vitronectin; cited from earlier work.
In another series the test system is glioma xenografts. The settings on record: in vivo; cited from earlier work.
A further series has as its target T1, phospho(Y394)-Lck (Homo sapiens, UniProt P06239).
T1 construct: hGSCs isolated from two patients with glioblastomas (GSC1 and GSC2) left untreated or treated with 500 nM Lck-I for 2 hours; endogenous in cells; host or cells: primary human glioma stem cells (GSC1, GSC2) from two glioblastoma patients
Description: Western blot of hGSC lysates for phospho(Y394)-Lck. It counts as cell-based. The settings on record: hGSCs (GSC1, GSC2) on fibronectin, 500 nM, 2 hours. On the technique in general: Immunoblotting shows a protein as a band on a membrane.

Series [1] deals with phospho(Y118)-paxillin. As to the kind of experiment: Western blot of hGSC lysates for phospho(Y118)-paxillin. It counts as cell-based, human. The note with it: hGSCs (GSC1, GSC2) on fibronectin, 500 nM, 2 hours. From the text:
(§1) For total cell lysates, cultures were lysed in 1×SDS lysis buffer supplemented with protease and phosphatase inhibitors (Sigma). Lysates were sonicated and cleared by centrifugation. Samples were separated on 4-12% Bis-Tris SDS-PAGE gels (NuPAGE), transferred on to nitrocellulose and immunoblotted using the following primary antibodies: p(Y418)-Src family, Lck (D88), […], pCrkII (Cell Signaling), mortalin (a kind gift of Dr. Alice Cavanaugh), and β-actin (Sigma). A custom phospho-specific polyclonal antibody was generated against p(Y394)-Lck and affinity-purified against total Lck, Fyn and Lyn (Thermo Fisher). Secondary antibodies used were HRP-conjugate goat anti-mouse and goat anti-rabbit (Cell Signaling). Semi-quantitative analysis was conducted with FluorChem SP analytical software. Statistical significance was determined by the two-tailed Student's t-test.

Another series has as its system phospho(Y221)-CrkII. As to the kind of experiment: Western blot of hGSC lysates for phospho(Y221)-CrkII. It counts as cell-based, human. The note with it: hGSCs (GSC1, GSC2) on fibronectin, 500 nM, 2 hours.
Description: as §1

The target in series [2] is T2, Fyn (Homo sapiens, UniProt P06241). Description: Immunoprecipitation/Western blot, phosphorylation state of Fyn. The settings on record: human glioma cells, 500 nm. Type of series: cell-based. On the procedure:
(§2) For immunoprecipitation studies, U87 MG cells treated with A77 or DMSO vehicle were lysed in 1×RIPA buffer containing protease and phosphatase inhibitors (Sigma). Lysates were cleared via centrifugation and were pre-cleared with TrueBlot anti-rabbit IgG beads (eBiosience) to remove non-specific binding. Primary antibodies against Lck, Src, Fyn, Lyn or Yes (Cell Signaling) were added and the lysates were incubated overnight at 4° C. with gentle rotation. The following day, TrueBlot anti-rabbit IgG (eBioscience) beads were added to the lysate and incubated at 4° C. for 2 hours. Immunoprecipitates were washed, solubilized in 2×Laemmli buffer and boiled for 5 minutes. The supernatants were separated on an 8% Bis-Tris SDS-PAGE gel, transferred to nitrocellulose and immunoblotted.
Target sequence in this assay (P06241 whole entry): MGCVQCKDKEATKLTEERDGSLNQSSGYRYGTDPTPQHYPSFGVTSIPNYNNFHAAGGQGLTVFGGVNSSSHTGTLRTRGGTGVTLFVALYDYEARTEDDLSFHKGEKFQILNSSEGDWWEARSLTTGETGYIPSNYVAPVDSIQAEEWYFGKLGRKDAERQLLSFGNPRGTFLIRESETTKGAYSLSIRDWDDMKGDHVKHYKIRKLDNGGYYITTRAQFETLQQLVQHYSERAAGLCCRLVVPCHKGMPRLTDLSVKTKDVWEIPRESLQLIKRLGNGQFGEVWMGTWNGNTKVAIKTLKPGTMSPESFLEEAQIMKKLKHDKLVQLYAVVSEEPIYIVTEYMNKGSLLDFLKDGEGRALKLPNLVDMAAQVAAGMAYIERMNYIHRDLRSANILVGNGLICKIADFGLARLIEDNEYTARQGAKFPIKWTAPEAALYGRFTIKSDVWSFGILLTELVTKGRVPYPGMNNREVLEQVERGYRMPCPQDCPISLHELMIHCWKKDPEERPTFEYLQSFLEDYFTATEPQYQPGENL

Series [3] addresses T3, Lyn (Homo sapiens, UniProt P07948). As to the kind of experiment: Immunoprecipitation/Western blot, phosphorylation state of Lyn. Type of series: cell-based. The settings on record: human glioma cells, 500 nm. On the procedure: as §2
Target sequence in this assay (P07948 whole entry): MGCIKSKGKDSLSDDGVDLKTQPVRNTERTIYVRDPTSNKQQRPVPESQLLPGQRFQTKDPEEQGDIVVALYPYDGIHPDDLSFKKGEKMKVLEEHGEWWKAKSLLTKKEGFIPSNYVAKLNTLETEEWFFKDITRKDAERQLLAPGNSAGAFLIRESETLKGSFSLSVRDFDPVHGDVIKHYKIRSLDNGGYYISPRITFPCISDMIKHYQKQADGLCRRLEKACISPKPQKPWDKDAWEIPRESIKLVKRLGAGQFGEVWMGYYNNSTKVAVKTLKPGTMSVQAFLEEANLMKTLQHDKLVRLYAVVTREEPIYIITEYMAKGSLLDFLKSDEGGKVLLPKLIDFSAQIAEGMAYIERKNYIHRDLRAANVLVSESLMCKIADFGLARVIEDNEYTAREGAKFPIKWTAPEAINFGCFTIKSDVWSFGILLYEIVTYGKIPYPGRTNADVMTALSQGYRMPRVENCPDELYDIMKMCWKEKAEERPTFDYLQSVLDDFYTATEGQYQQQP
Series [4] relates to phospho(Y118)-paxillin. Description: Immunocytochemistry of phospho(Y118)-paxillin in human GSCs. It counts as cell-based. The settings on record: 500 nM, 2 hours, versus control. As to the method:
(§3) To assess pseudopodia formation, GBM stem cells were seeded on fibronectin coated (10 ug/ml, Sigma) glass chamber slides (NUNC) in the presence of serum for 2.5 hours. Cultures were treated with 500 nM of Lck inhibitor or DMSO vehicle for 2 hours and then fixed in 4% formaldehyde. Samples were permeabilized and blocked with 5% normal goat serum containing 0.3% Triton X-100 in 1×PBS (Sigma) at RT for 1 hour. The samples were stained overnight at 4° C. with Phospho-Paxillin (CellSignaling). The following day, secondary antibodies were applied at manufacturer recommended dilutions for 1 hour at RT (Jackson ImmunoResearch). Samples were subsequently stained with Rhodamine RedX Phalloidin (Life Technologies) and Hoescht 33342 (Life Technologies) following manufacturer's protocols. Slides were mounted with Aqua Poly/Mount (Polysciences) and imaged using a Zeiss confocal microscope. Adobe Photoshop was used to count the total number of pseudopodia, which included both axial and radial projections, per cell for each group. Differences between groups were confirmed using Student's t-test.

Series [5] concerns human GSCs. Description: Pseudopodia (lamellipodia) formation of human GSCs on fibronectin. The settings on record: fibronectin substrate, 500 nM, 2 hours, versus untreated/DMSO. Type of series: cell-based. On the procedure:
as §3

Series [6] deals with human GSCs. Description: Migration of human GSCs along parallel DRG axonal bundles (coverslips with parallel scratches). The note with it: human GSC-DRG axon co-cultures, versus DMSO control. Type of series: cell-based. On the procedure: As inhibition of Lck signalling has a dramatic effect on pseudopodia extension and retraction, Applicants investigated whether Lck may also function to regulate the migration and invasion of human GSCs. […] To assess the effect of Lck signaling on the migration and interaction of hGSCs with DRG axons, Applicants seeded hGSCs on DRG axons and treated the cultures with Lck-I or PBS/DMSO for 72 hours. […] To quantify the effect of Lck inhibition on GSC migration, Applicants added GSCs on DRG axons with and without Lck-I and quantified the surface area covered by the migrating glioma cells using Image-J.

In series [7] the test system is human GSCs. Description: Migration of human GSCs on purified DRG axon cultures. It counts as cell-based. The settings on record: purified DRG axons, 72 hours. As to the method: To assess the effect of the Lck inhibitor on migrating glioma cells, GBM spheres were seeded on rat DRG cultures in Supplemented NB-A Medium containing 10% FBS. Spheres were allowed to attach for one hour. Cultures were treated with 500 nM of Lck inhibitor or DMSO vehicle for 72 hours. Samples were fixed in 4% formaldehyde for 10 minutes, permeabilized and blocked with 5% normal goat serum containing 0.3% Triton X-100 in 1×PBS (Sigma) at RT for 1 hour. The samples were stained overnight at 4° C. with Ki67 (Cell Signaling), GFAP (DAKO) and NF (EnCor Biotechnology). Area of glioma stem cell migration for each sample was calculated by normalizing the total area of migration to the interior area of the non-migrating sphere mass. Differences between groups were then confirmed using Student's test.

Series [8] has as its system human GSCs. As to the kind of experiment: xCELLigence impedance assay of cell spreading/migration. It counts as cell-based. The note with it: 500 nM, versus DMSO. On the procedure:
The xCELLigence system was used to perform cell migration assays on the RTCA DP instrument. Electrical impedance due to cell migration is represented as cell index. GBM cells were seeded on fibronectin coated wells of the RTCA CIM-plate 16 (ACEA Biosciences) and allowed to attach and spread for 1 hour at room temperature. After 1 hour, wells were treated with DMSO vehicle or 500 nM Lck inhibitor. As cells migrated towards the lower chamber containing 10% FBS with DMSO vehicle or 500 nM Lck inhbitor, measurements were captured every 5 minutes. Cell index data was plotted overtime and the slope between 2 and 6 hours was calculated.

In series [9] the test system is human GSCs. Description: Invasion in Alvetex scaffold. It counts as cell-based. The settings on record: 500 nM, 72 hours, versus untreated. As to the method:
Alvetex scaffolds were coated with fibronectin (10 μg/ml) for 2 hours at 37° C. 750,000 GBM cells were plated in the center of each scaffold and allowed to attach for one hour. Cultures were grown in Supplemented NB-A Medium containing 10% FBS. Cultures were treated with 500 nM of Lck inhibitor or DMSO vehicle for 72 hours. Samples were fixed in 4% formaldehyde for 10 minutes, permeabilized with 0.1% Triton X-100 and blocked with 1% BSA-PBS for 30 minutes at room temperature. Samples were subsequently stained with Rhodamine RedX Phalloidin (Life Technologies) and Hoescht 33342 (Life Technologies) following manufacturer's protocols. Slides were mounted with Aqua Poly/Mount (Polysciences) and imaged using a Zeiss confocal microscope.

In series [10] the test system is human glioblastoma (hGSCs). Description: Orthotopic xenograft mouse model of human glioblastoma. Type of series: in vivo, Nu/J mice. As to the method: To determine the effect of inhibition of Lck signaling in human glioma formation in vivo, Applicants used an orthotopic xenograft mouse model of human glioblastoma (Singh et al., 2004; Valadez et al., 2014). Applicants injected under stereotactic guidance 200,000 hGSCs at coordinates −2.0 mm AP and +1.5 mm ML relative to Bregma. The Lck-I or the PBS/DMSO were administered through an Alzet pump in the lateral ventricle continuously for 4 weeks. Brains were formalin fixed and stained for human Ki67 4 weeks after the implantation.
Intracranial injections were performed using a stereotaxic apparatus (Kopf) on 8-week-old Nu/J mice initially sedated with 4% isoflurane and maintained with 2% isoflurane. After leveling the skull, a hole was drilled with a #72 micro drill bit (Kyocera) at coordinates −2.0 mm AP and +1.5 mm ML relative to Bregma. A 75 RN Hamilton syringe was then lowered to a depth of −2.5 mm DV at a rate of 0.5 mm per minute, and 200,000 primary GSCs from donor 2 resuspended in a total volume of 4 μl were injected at a rate of 0.5 μl per minute using a Stoelting Quintessiential Stereotaxic Injector. In order to reduce backflow, the syringe was allowed to rest for 2 minutes post-injection before it was withdrawn at a rate of 0.5 mm per minute, and the cavity was immediately sealed with bone wax (Ethicon). A subcutaneous pocket was formed, and an Alzet osmotic pump 1004 fitted with brain infusion kit 3 and containing either 1.175 mg of A77 (Axon Medchem) or DMSO/Kolliphor ELP vehicle was inserted near the left hind limb of the animal. A second hole was drilled at coordinates of +0.5 mm and +1.1 mm ML relative to Bregma with the same micro drill bit to allow placement of the brain infusion catheter in the right lateral ventricle. The brain infusion catheter was lowered into the brain and glued to the skull using Loctite 454 cyanoacrylate adhesive. The incision was sealed using veterinary tissue glue and a dab of antibiotic ointment was placed over the head and neck. Animals were monitored daily for weight loss, pain and distress. After four weeks, animals were euthanized with pentobarbital and perfused with 4% formaldehyde. Brains were harvested, post-fixed in 4% formaldehyde, and processed for paraffin embedding. Paraffin embedded tissue was sliced on a microtome to […] sections and placed on microscope slides. Tissues were stained for H&E and ki67 (Roche) using a Ventana Autostainer. Images were captured using a Zeiss Axiovert inverted microscope.
In general terms: A xenograft is tissue or cells of one species grown in another, often human tumour cells in immunodeficient mice.

For series [11], the target named is T3, Lyn. The note with it: cited from earlier work.
Target sequence in this assay (P07948 whole entry, species assumed): as the sequence (P07948 whole entry) above
Series [12] deals with T2, Fyn. The note with it: cited from earlier work.
Target sequence in this assay (P06241 whole entry, species assumed): as the sequence (P06241 whole entry) above
Setting [13] is: continuous infusion in the lateral ventricle for 4 weeks, n=5.

T1 sequence (P06239 whole entry): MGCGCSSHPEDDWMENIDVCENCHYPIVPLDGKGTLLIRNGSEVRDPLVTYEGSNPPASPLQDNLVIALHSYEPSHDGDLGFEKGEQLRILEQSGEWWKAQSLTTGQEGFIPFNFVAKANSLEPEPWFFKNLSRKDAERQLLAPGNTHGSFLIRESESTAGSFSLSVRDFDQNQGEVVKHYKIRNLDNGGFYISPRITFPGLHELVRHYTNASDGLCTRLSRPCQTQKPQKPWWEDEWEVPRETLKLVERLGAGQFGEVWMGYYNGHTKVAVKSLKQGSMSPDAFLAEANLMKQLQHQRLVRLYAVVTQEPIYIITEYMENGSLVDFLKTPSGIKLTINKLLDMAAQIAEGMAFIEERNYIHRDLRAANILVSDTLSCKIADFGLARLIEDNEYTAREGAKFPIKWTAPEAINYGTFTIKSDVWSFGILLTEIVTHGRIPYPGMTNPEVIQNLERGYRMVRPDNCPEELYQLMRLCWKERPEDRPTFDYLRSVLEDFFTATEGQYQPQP
Description for phospho(Y394)-Lck: For total cell lysates, cultures were lysed in 1×SDS lysis buffer supplemented with protease and phosphatase inhibitors (Sigma). Lysates were sonicated and cleared by centrifugation. […] A custom phospho-specific polyclonal antibody was generated against p([MUT])-Lck and affinity-purified against total Lck, Fyn and Lyn (Thermo Fisher). Secondary antibodies used were HRP-conjugate goat anti-mouse and goat anti-rabbit (Cell Signaling). Semi-quantitative analysis was conducted with FluorChem SP analytical software. Statistical significance was determined by the two-tailed Student's t-test.

In the case of `CC(C)[C@H]1C(=O)N[C@@H](CCCN=C(N)N)C(=O)NCC(=O)N[C@@H](CC(=O)O)C(=O)N[C@H](Cc2ccccc2)C(=O)N1C` [EMD121974, Cilengitide], in the series with U87 glioma cells, the apoptosis entry is “induces apoptosis”. Besides, the “effect on glioma xenografts” value in the series with glioma xenografts is on record as “significant regression”.

On to `COc1cc(-c2nn([C@H]3CC[C@H](N4CCN(C(C)=O)CC4)CC3)c3ncnc(N)c23)ccc1NC(=O)c1cc2ccccc2n1C` [Lck-I, A770041], for which the “phosphorylation level of Lck, phospho(Y394)-Lck” value on phospho(Y394)-Lck is on record as “significantly reduced; also recorded: significant reduction”. Moreover, the “phosphorylation level of paxillin, phospho(Y118)-paxillin” value with phospho(Y118)-paxillin [1] is “significantly reduced; also recorded: significant reduction”. Also, in the series on phospho(Y221)-CrkII, the “phosphorylation level of CrkII, phospho(Y221)-CrkII” value is “significantly reduced; also recorded: significant reduction”. At Fyn [2], the “phosphorylation state of Fyn” value was “does not affect; also recorded: no effect”. The “phosphorylation state of Lyn” value on Lyn [3] was “does not affect; also recorded: no effect”. Besides, in the series on phospho(Y118)-paxillin [4], the “phospho-paxillin(Y118) staining at focal adhesions” value is “reduced; also recorded: almost complete absence”. Besides, the “number of pseudopodia (lamellipodia) per cell” value with human GSCs [5] is on record as “significantly reduced; also recorded: significantly lower”. Also, the “migration along parallel axonal bundles (finger-like projections)” value with human GSCs [6] is recorded as “complete inhibition of migration; also recorded: complete ablation of the finger-like projections”. Also, the “total area of migration (surface area covered by migrating glioma cells)” value with human GSCs [7] (500 nM) is given as “significant reduction”. In the series on human GSCs [7] (n=6), the “integration of tumor cells within the axonal network” value was “almost complete lack of integration; also recorded: limited integration and expansion”. Besides, the “migration of individual glioma cells (GFAP+/Ki67+ migrating tumor cells)” value in the series on human GSCs [7] (versus control) is recorded as “inhibition of migration; also recorded: significant decrease”. For the same compound, the “human GSC migration (surface area by electrical impedance)” value in the series with human GSCs [8] was “significant reduction”. Also, in the series with human GSCs [8] (fibronectin-coated plate), the “cell spreading (cell processes) after addition” value is recorded as “immediate retraction of cell processes”. Also, the “invasion (depth/total area of invasion within scaffold, z-stack confocal)” value in the series on human GSCs [9] was “significant inhibition; also recorded: significant reduction”. In addition, the body condition score entry in series [10] (all treated animals, 4 weeks) is on record as “excellent”. In addition, the “side effects of local administration” value in series [10] (continuous infusion in the lateral ventricle for 4 weeks) is given as “no apparent side effects”. Also, in series [10] (setting [13]), the “invasion/migration of human glioma cells within the brain parenchyma” value was “minimal invasion/integration; also recorded: significant inhibition of tumor migration and invasion; also recorded: minimal invasion and migration”; the tissue necrosis result is listed as “absence of tissue necrosis; also recorded: lack of focal necrosis”. The tumor formation entry in [10] (continuous infusion in the lateral ventricle for 4 weeks, versus PBS/DMSO, n=5) is given as “complete lack of solid tumor formation; also recorded: significant inhibition of tumor formation”. Also, at Lyn [11], the “specificity for Lck over Lyn” value is on record as 8 fold. Further, the “specificity for Lck over Fyn” value at Fyn [12] is recorded as 300 fold.
